Experimental data reported in patent US20200405696A1, “INHIBITORS OF INDOLEAMINE 2,3-DIOXYGENASE AND/OR TRYPTOPHAN 2,3-DIOXYGENASE” (IDORSIA PHARMACEUTICALS LTD, priority 2018, published 2020).

Legend:
[1] = target: T1, Recombinant human TDO comprising amino acids 19-407 (Homo sapiens, UniProt P48775); experiment: TDO2 enzymatic assay (NFK quantified by LCMS); type: biochemical; details: 15 nM enzyme, 200 μM L-tryptophan, pH7, 30 minutes pre-incubation at RT; mean values when measured multiple times; read-out: hTDO activity (IC50 in nM)
T1 construct: Recombinant human TDO comprising amino acids 19-407 with a N-terminal hexahistidine tag; hexahistidine (His6) (N); made in house; host or cells: E. coli
In short: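 NFK formed over 30 min at RT from 200 μM L-tryptophan was measured by LCMS, normalized to d5-tryptophan, after compound (0.5 nM–10 μM, duplicates, 0.6% DMSO) was preincubated 30 min with 15 nM recombinant His-tagged TDO 19-407 in phosphate buffer pH 7. IC50 from four-parameter logistic fit; repeats averaged.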

[2] = target: T2, Recombinant full-length human IDO1 (Homo sapiens, UniProt P14902); experiment: IDO1 enzymatic assay (NFK quantified by LCMS); type: biochemical; details: 2 nM enzyme, 5 μM L-tryptophan, pH6.5, 30 minutes pre-incubation at RT; mean values when measured multiple times; read-out: hIDO activity (IC50 in nM)
T2 construct: Recombinant full-length human IDO1 with a N-terminal hexahistidine tag; hexahistidine (His6) (N); made in house; host or cells: E. coli
In short: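 IC50 comes from four-parameter logistic fits of duplicate data, with NFK quantified by LCMS and normalized to L-Trp-(indole-d5). Compound (0.5 nM–10 μM) was preincubated 30 min at RT with 2 nM E. coli-expressed IDO1 before a 30 min reaction with 5 μM tryptophan in pH 6.5 buffer containing ascorbate and methylene blue.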

T2 sequence (P14902 whole entry): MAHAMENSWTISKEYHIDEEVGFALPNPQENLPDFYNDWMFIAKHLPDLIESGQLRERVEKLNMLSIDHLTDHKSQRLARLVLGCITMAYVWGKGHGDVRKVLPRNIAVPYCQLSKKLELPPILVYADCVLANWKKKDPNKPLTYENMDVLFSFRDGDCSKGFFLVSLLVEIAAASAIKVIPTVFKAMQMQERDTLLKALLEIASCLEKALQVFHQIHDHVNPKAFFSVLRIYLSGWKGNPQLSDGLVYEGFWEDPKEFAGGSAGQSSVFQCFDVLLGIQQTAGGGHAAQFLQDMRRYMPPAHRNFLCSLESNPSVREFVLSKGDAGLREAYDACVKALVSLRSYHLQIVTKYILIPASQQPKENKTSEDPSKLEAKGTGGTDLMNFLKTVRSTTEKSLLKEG
T1 sequence (P48775 19-406 limits assumed): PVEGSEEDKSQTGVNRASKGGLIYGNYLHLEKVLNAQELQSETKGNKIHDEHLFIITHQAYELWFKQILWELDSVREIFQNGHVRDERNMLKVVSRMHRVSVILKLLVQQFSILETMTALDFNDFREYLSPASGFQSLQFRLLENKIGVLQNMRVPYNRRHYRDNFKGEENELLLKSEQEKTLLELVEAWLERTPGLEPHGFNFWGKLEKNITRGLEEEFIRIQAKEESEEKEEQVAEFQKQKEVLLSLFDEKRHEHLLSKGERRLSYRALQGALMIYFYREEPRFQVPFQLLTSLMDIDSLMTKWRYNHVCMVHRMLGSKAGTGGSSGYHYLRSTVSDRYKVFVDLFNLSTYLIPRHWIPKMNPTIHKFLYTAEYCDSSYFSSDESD

With `Oc1ccc(-n2cc(C(O)c3c(C4CC4)sc4cncn34)nn2)cc1OC(F)(F)F` (racemic) [Example 210, rac-4-{4-[(2-Cyclopropyl-imidazo[5,1-b]thiazol-3-yl)-hydroxy-methyl]-[1,2,3]triazol-1-yl}-2-trifluoromethoxy-phenol] the IC50 [1] was > 10200 nM and the IC50 [2] was 23.5 nM.

For `Cc1cc(-n2cc(C(O)c3c(C4CC4)sc4cncn34)nn2)ccc1O` (racemic) [Example 211, rac-4-{4-[(2-Cyclopropyl-imidazo[5,1-b]thiazol-3-yl)-hydroxy-methyl]-[1,2,3]triazol-1-yl}-2-methyl-phenol], the IC50 [1] was > 10200 nM and the IC50 [2] was 15.8 nM.

Molecule `Oc1ccc(-n2cc(C(O)c3c(C4CC4)sc4cncn34)nn2)c(Cl)c1` (racemic) [Example 212, rac-3-Chloro-4-{4-[(2-cyclopropyl-imidazo[5,1-b]thiazol-3-yl)-hydroxy-methyl]-[1,2,3]triazol-1-yl}-phenol] has an IC50 [1] of 6190 nM and an IC50 [2] of 10.5 nM.

Molecule `Oc1ccc(-n2cc(C(O)c3c(C4CC4)sc4cncn34)nn2)c(OC(F)(F)F)c1` (racemic) [Example 213, rac-4-{4-[(2-Cyclopropyl-imidazo[5,1-b]thiazol-3-yl)-hydroxy-methyl]-[1,2,3]triazol-1-yl}-3-trifluoromethoxy-phenol] has an IC50 [1] of 2620 nM and an IC50 [2] of 199 nM.

`Oc1ccc(-n2cc(C(O)c3c(C4CC4)sc4cncn34)nn2)c(C(F)(F)F)c1` (racemic) [Example 214, rac-4-{4-[(2-Cyclopropyl-imidazo[5,1-b]thiazol-3-yl)-hydroxy-methyl]-[1,2,3]triazol-1-yl}-3-trifluoromethyl-phenol] gave an IC50 [1] of 8890 nM and an IC50 [2] of 127 nM.

With `Oc1cccc(-n2cc(C(O)c3c(C4CC4)sc4cncn34)nn2)c1` (racemic) [Example 215, rac-3-{4-[(2-Cyclopropyl-imidazo[5,1-b]thiazol-3-yl)-hydroxy-methyl]-[1,2,3]triazol-1-yl}-phenol] the IC50 [1] was > 10200 nM and the IC50 [2] was 27.6 nM.

In the case of `COc1ccc(-n2cc(C(O)c3c(C4CC4)sc4cncn34)nn2)cc1O` (racemic) [Example 216, rac-5-{4-[(2-Cyclopropyl-imidazo[5,1-b]thiazol-3-yl)-hydroxy-methyl]-[1,2,3]triazol-1-yl}-2-methoxy-phenol], the IC50 [1] is reported as > 10200 nM and the IC50 [2] is reported as 29.1 nM.

In the case of `Oc1cc(-n2cc(C(O)c3c(C4CC4)sc4cncn34)nn2)ccc1Cl` (racemic) [Example 217, rac-2-Chloro-5-{4-[(2-cyclopropyl-imidazo[5,1-b]thiazol-3-yl)-hydroxy-methyl]-[1,2,3]triazol-1-yl}-phenol], the IC50 [1] is reported as > 10200 nM and the IC50 [2] is reported as 9.6 nM.

`Cc1ccc(-n2cc(C(O)c3c(C4CC4)sc4cncn34)nn2)cc1O` (racemic) [Example 218, rac-5-{4-[(2-Cyclopropyl-imidazo[5,1-b]thiazol-3-yl)-hydroxy-methyl]-[1,2,3]triazol-1-yl}-2-methyl-phenol] was tested, and the IC50 [1] was > 10200 nM and the IC50 [2] was 24.1 nM.

For `Oc1cc(-n2cc(C(O)c3c(C4CC4)sc4cncn34)nn2)cc(C(F)(F)F)c1` (racemic) [Example 219, rac-3-{4-[(2-Cyclopropyl-imidazo[5,1-b]thiazol-3-yl)-hydroxy-methyl]-[1,2,3]triazol-1-yl}-5-trifluoromethyl-phenol], the IC50 [1] was > 10200 nM and the IC50 [2] was 63.2 nM.

In the case of `Cc1cc(O)cc(-n2cc(C(O)c3c(C4CC4)sc4cncn34)nn2)c1` (racemic) [Example 220, rac-3-{4-[(2-Cyclopropyl-imidazo[5,1-b]thiazol-3-yl)-hydroxy-methyl]-[1,2,3]triazol-1-yl}-5-methyl-phenol], the IC50 [1] is reported as > 10200 nM and the IC50 [2] is reported as 27.2 nM.

`Oc1cc(Cl)ccc1-n1cc(C(O)c2c(C3CC3)sc3cncn23)nn1` (racemic) [Example 221, rac-5-Chloro-2-{4-[(2-cyclopropyl-imidazo[5,1-b]thiazol-3-yl)-hydroxy-methyl]-[1,2,3]triazol-1-yl}-phenol] was tested, and the IC50 [1] was > 10200 nM and the IC50 [2] was 90.2 nM.

`OC(c1cnn(-c2ccc3c(c2)OCCO3)c1)c1c(C2CC2)sc2cncn12` (racemic) [Example 222, rac-(2-Cyclopropyl-imidazo[5,1-b]thiazol-3-yl)-[1-(2,3-dihydro-benzo[1,4]dioxin-6-yl)-1H-pyrazol-4-yl]-methanol] was tested, and the IC50 [1] was 7880 nM and the IC50 [2] was 97.2 nM.

`COc1ccc(-n2cc(C(O)c3c(C4CC4)sc4cncn34)cn2)cn1` (racemic) [Example 223, rac-(2-Cyclopropyl-imidazo[5,1-b]thiazol-3-yl)-[1-(6-methoxy-pyridin-3-yl)-1H-pyrazol-4-yl]-methanol] was tested, and the IC50 [1] was > 10200 nM and the IC50 [2] was 164 nM.

In the case of `CC(=O)Nc1ccc(-n2cc(C(O)c3c(C4CC4)sc4cncn34)cn2)cc1` (racemic) [Example 224, rac-N-(4-{4-[(2-Cyclopropyl-imidazo[5,1-b]thiazol-3-yl)-hydroxy-methyl]-pyrazol-1-yl}-phenyl)-acetamide], the IC50 [1] is reported as > 10200 nM and the IC50 [2] is reported as 1100 nM.

`CCc1sc2cncn2c1C(O)c1cn(-c2ccc(S(=O)(=O)NC)cc2)nn1` (racemic) [Example 225, rac-4-{4-[(2-Ethyl-imidazo[5,1-b]thiazol-3-yl)-hydroxy-methyl]-[1,2,3]triazol-1-yl}-N-methyl-benzenesulfonamide] was tested, and the IC50 [1] was > 10200 nM and the IC50 [2] was 47.2 nM.

`CNS(=O)(=O)c1ccc(-n2cc(C(O)c3c(C4CC4)sc4cncn34)nn2)cc1` (racemic) [Example 226, rac-4-{4-[(2-Cyclopropyl-imidazo[5,1-b]thiazol-3-yl)-hydroxy-methyl]-[1,2,3]triazol-1-yl}-N-methyl-benzenesulfonamide] was tested, and the IC50 [1] was > 10200 nM and the IC50 [2] was 63.6 nM.

`Cn1ccc2cc(-n3cc(C(O)c4c(C5CC5)sc5cncn45)cn3)cnc21` (racemic) [Example 229, rac-(2-Cyclopropyl-imidazo[5,1-b]thiazol-3-yl)-[1-(1-methyl-1H-pyrrolo[2,3-b]pyridin-5-yl)-1H-pyrazol-4-yl]-methanol] was tested, and the IC50 [1] was 1440 nM and the IC50 [2] was 43.7 nM.

Work on `CCc1sc2cncn2c1C(O)c1cn(-c2ccc(NC(=O)c3ccccc3)cc2)nn1` (racemic) [Example 230, rac-N-(4-{4-[(2-Ethyl-imidazo[5,1-b]thiazol-3-yl)-hydroxy-methyl]-[1,2,3]triazol-1-yl}-phenyl)-benzamide] yielded an IC50 [1] of 2710 nM and an IC50 [2] of 28.7 nM.

For `CCOC(=O)COc1ccc(-n2cc(C(O)c3c(C4CC4)sc4cncn34)nn2)cc1` (racemic) [Example 231, rac-(4-{4-[(2-Cyclopropyl-imidazo[5,1-b]thiazol-3-yl)-hydroxy-methyl]-[1,2,3]triazol-1-yl}-phenoxy)-acetic acid ethyl ester], the IC50 [1] was > 10200 nM and the IC50 [2] was 22.3 nM.

In the case of `CCc1cc(-n2cc(C(O)c3c(C4CC4)sc4cncn34)nn2)ccc1O` (racemic) [Example 232, rac-4-{4-[(2-Cyclopropyl-imidazo[5,1-b]thiazol-3-yl)-hydroxy-methyl]-[1,2,3]triazol-1-yl}-2-ethyl-phenol], the IC50 [1] is reported as > 10200 nM and the IC50 [2] is reported as 40.1 nM.

In the case of `N#Cc1ccc(-n2cc(C(O)c3c(C4CC4)sc4cncn34)nn2)cc1O` (racemic) [Example 233, rac-4-{4-[(2-Cyclopropyl-imidazo[5,1-b]thiazol-3-yl)-hydroxy-methyl]-[1,2,3]triazol-1-yl}-2-hydroxy-benzonitrile], the IC50 [1] is reported as > 10200 nM and the IC50 [2] is reported as 20.3 nM.
